Eight compounds from US20220402950A1, “SUBSTITUTED BENZIMIDAZOLES AS PAD4 INHIBITORS” (BRISTOL-MYERS SQUIBB COMPANY, priority 2018, published 2022) can be followed below.

The structures appear in SMILES notation.

Chain of human PAD4 (hPAD4) (Q9UM07 whole entry): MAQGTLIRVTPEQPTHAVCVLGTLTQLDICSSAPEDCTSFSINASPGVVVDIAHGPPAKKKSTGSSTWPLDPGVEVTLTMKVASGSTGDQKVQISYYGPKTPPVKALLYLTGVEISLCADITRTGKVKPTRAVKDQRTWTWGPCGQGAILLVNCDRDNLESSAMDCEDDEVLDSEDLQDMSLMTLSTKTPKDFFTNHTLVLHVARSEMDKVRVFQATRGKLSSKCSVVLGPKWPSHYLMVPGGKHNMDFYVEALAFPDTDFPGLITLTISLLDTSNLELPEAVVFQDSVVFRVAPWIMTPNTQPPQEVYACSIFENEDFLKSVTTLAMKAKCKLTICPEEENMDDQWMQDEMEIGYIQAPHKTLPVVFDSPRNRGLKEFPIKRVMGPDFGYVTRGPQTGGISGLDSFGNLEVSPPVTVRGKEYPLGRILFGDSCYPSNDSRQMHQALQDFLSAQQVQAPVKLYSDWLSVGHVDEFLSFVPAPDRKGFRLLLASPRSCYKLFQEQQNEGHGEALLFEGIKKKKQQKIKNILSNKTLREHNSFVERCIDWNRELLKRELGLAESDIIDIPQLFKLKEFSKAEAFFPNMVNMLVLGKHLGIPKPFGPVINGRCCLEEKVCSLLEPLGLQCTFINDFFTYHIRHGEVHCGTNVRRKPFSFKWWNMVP

The assay deals with human PAD4 (hPAD4) (Homo sapiens, UniProt Q9UM07). Kind of assay: RFMS Human PAD4 Functional Assay. The format is biochemical. The note with it: hPAD4 RFMS IC50, human PAD4, rapid-fire mass spectrum (RFMS) assay; 5 nM hPAD4, 250 μM BAEE. Summed up:
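RapidFire ESI-MS quantification, normalised to a modified-citrulline internal standard, after phenyl glyoxal (final 4 mM) derivatisation of the TCA-quenched reaction. The enzyme (10 nM) sat 30 min with compound (up to 50 μM final) before 500 μM BAEE (as added) started a 90 min, 37 °C reaction. Buffer: HEPES pH 7.5, 50 μM calcium, 5 μM TPEN.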
In the case of `COc1cc(C(=O)N2C[C@H]3CC[C@@H]2[C@@H]3N)cc2nc(-c3cc4cccc(C5(O)CCC5)c4n3CC3CC3)n(C)c12` [Example 218, ((1R,4R,7R)-7-amino-2-azabicyclo[2.2.1]heptan-2-yl)(2-(1-(cyclopropylmethyl)-7-(1-hydroxycyclobutyl)-1H-indol-2-yl)-7-methoxy-1-methyl-1H-benzo[d]imidazol-5-yl)methanone], the IC50 (commonly the concentration that gives 50% inhibition) came to 0.057 µM.

As for `COc1cc(C(=O)N2C[C@H]3CC[C@@H]2[C@@H]3N)cc2nc(-c3cc4cccc(C5=CCC5)c4n3CC3CC3)n(C)c12` [Example 219, ((1R,4R,7R)-7-amino-2-azabicyclo[2.2.1]heptan-2-yl)(2-(7-(cyclobut-1-en-1-yl)-1-(cyclopropylmethyl)-1H-indol-2-yl)-7-methoxy-1-methyl-1H-benzo[d]imidazol-5-yl)methanone], the IC50 worked out at 0.052 µM.

In the case of `COc1cc(C(=O)N2C[C@H]3CC[C@@H]2[C@@H]3N)cc2nc(-c3cc4cccc(C5=CCN(C(C)=O)CC5)c4n3CC3CC3)n(C)c12` [Example 220, 1-(4-(2-(5-((1R,4R,7R)-7-amino-2-azabicyclo[2.2.1]heptane-2-carbonyl)-7-methoxy-1-methyl-1H-benzo[d]imidazol-2-yl)-1-(cyclopropylmethyl)-1H-indol-7-yl)-3,6-dihydropyridin-1(2H)-yl)ethan-1-one], the IC50 came out at 0.043 µM.

Regarding `COC(=O)N1CC=C(c2cccc3cc(-c4nc5cc(C(=O)N6C[C@H]7CC[C@@H]6[C@@H]7N)cc(OC)c5n4C)n(CC4CC4)c23)CC1` [Example 221, methyl 4-(2-(5-((1R,4R,7R)-7-amino-2-azabicyclo[2.2.1]heptane-2-carbonyl)-7-methoxy-1-methyl-1H-benzo[d]imidazol-2-yl)-1-(cyclopropylmethyl)-1H-indol-7-yl)-3,6-dihydropyridine-1(2H)-carboxylate], the IC50 came to 0.077 µM.

For `COc1cc(C(=O)N2C[C@H]3CC[C@@H]2[C@@H]3N)cc2nc(-c3cc4cccc(-c5cccc(C(O)CO)c5)c4n3CC3CC3)n(C)c12` (stereo partly drawn) [Example 222, ((1R,4R,7R)-7-amino-2-azabicyclo[2.2.1]heptan-2-yl)(2-(1-(cyclopropylmethyl)-7-(3-(1,2-dihydroxyethyl)phenyl)-1H-indol-2-yl)-7-methoxy-1-methyl-1H-benzo[d]imidazol-5-yl)methanone], half-maximal inhibition (IC50) was put at 0.094 µM.

For `COc1cc(C(=O)N2C[C@H]3CC[C@@H]2[C@@H]3N)cc2nc(-c3cc4cccc(-c5ccc(CNC(C)=O)c(CO)c5)c4n3CC3CC3)n(C)c12` [Example 223, N-(4-(2-(5-((1R,4R,7R)-7-amino-2-azabicyclo[2.2.1]heptane-2-carbonyl)-7-methoxy-1-methyl-1H-benzo[d]imidazol-2-yl)-1-(cyclopropylmethyl)-1H-indol-7-yl)-2-(hydroxymethyl)benzyl) acetamide], half-maximal inhibition (IC50) required 0.088 µM.

`COc1cc(C(=O)N2C[C@H]3CC[C@@H]2[C@@H]3N)cc2nc(-c3cc4cccc(C5CCN(C(=O)C6CC67CC7)CC5)c4n3CC3CC3)n(C)c12` (stereo partly drawn) [Example 224, (4-(2-(5-((1R,4R,7R)-7-amino-2-azabicyclo[2.2.1]heptane-2-carbonyl)-7-methoxy-1-methyl-1H-benzo[d]imidazol-2-yl)-1-(cyclopropylmethyl)-1H-indol-7-yl)piperidin-1-yl)(spiro[2.2]pentan-1-yl)methanone]: the IC50 was found to be 0.078 µM.

On to `COc1cc(C(=O)N2C[C@H]3CC[C@@H]2[C@@H]3N)cc2nc(-c3cc4cccc(C5CCN(C(=O)C6CC6)CC5)c4n3CC3CC3)n(C)c12` [Example 225, (4-(2-(5-((1R,4R,7R)-7-amino-2-azabicyclo[2.2.1]heptane-2-carbonyl)-7-methoxy-1-methyl-1H-benzo[d]imidazol-2-yl)-1-(cyclopropylmethyl)-1H-indol-7-yl)piperidin-1-yl)(cyclopropyl)metha-none], for which the concentration for half-maximal inhibition (IC50) was 0.112 µM.
